row,SMILES,melting point [°C]
1,COc1c2c(c(OC)c(OC)c1OC)CCC(CCn1nnc3ccccc31)CC2,99 to 101
2,COc1ccc2c(=O)c(C=O)coc2c1OC(C)=O,160 to 161
3,CCC(=O)c1ccc2c(Cc3ccccc3)c(CC)oc2c1,86 to 87
4,CNc1ncccc1[N+](=O)[O-],52 to 53
5,O=C1c2ccccc2C(=O)c2sc(-c3ccc([N+](=O)[O-])o3)nc21,> 300
6,COc1ccc(S(=O)(=O)N(CC#N)c2ccc(Cl)cc2C(=O)c2ccccc2Cl)cc1OC,164
7,COc1ccc(CN(C)CCCCc2ccc(NC(=O)c3cccc4c(=O)c5cccc([N+](=O)[O-])c5[nH]c34)cc2)cc1OC,174
8,O=Cc1cc(-c2ccc(Cl)cc2F)ccc1OC(F)(F)F,41 to 42
9,Cc1c(-c2ccccc2)[nH]c2ccc(Cl)cc2c1=O,296 to 302
10,CCn1cc(C(=O)O)c(=O)c2cc(F)c(N3CCC(CN)CC3)nc21,203 to 206
11,O=C1CN(c2cncc(Cl)n2)CCN1,192 to 193
12,CNS(=O)(=O)c1ccc2ccccc2c1,137
13,CCOC(C)n1cnc(C(N)=O)n1 (stereo unspecified),163 to 166
14,CC(CCl)(c1cc(Cl)nnc1Cl)C(Cl)Cl (stereo unspecified),82 to 85
15,CCc1c(C)[nH]c2c1C(=S)C1CNCCC1C2 (stereo unspecified),190 to 194
16,c1ccc2c(c1)c1ccccc1n2-c1ccc(-c2ccc(-n3c4ccccc4c4ccccc43)cc2)cc1,280 to 281
17,Cc1cc(Oc2ncc(C(F)(F)F)cc2Cl)nn1C(=O)NC1CC1,98 to 99
18,COc1c(C)c(Cc2ccc(Cl)cc2)c(OC)c2ccccc12,101 to 102
19,COC(=O)CCCOc1cc([N+](=O)[O-])c(C(C)NC(=O)C(F)(F)F)cc1OC (stereo unspecified),156 to 157
20,CC(=O)SCCNC(=O)CCNC(=O)OCc1ccccc1,83 to 108
21,CS(=O)(=O)On1nnc2ccccc21,88 to 90
22,Oc1ccc2c(c1)CCC(CCN1CCCCC1)C2 (stereo unspecified),154 to 157
23,Cc1ccc(C(=O)NC(NC(=O)Nc2ccccc2)C(Cl)(Cl)Cl)cc1 (stereo unspecified),230 to 233
24,CCCC(=NOCC)C1=C(O)CC(c2c(C)c(C)c(C)c3c2OCC3)CC1=O (stereo unspecified),108

row,SMILES,melting point [°C]
1,CC(C)(OCCN1C(=O)c2ccccc2C1=O)OCCN1C(=O)c2ccccc2C1=O,139 to 141
2,CC1(C)C(NN)=Nc2ccccc2C1(O)c1ccccc1 (stereo unspecified),195 to 196
3,O=Cc1c(F)cc(F)cc1-c1ccc(F)cc1,69 to 71
4,COc1ccccc1-n1cnc2c(C(N)=O)nc(-c3cccc(O)c3)nc21,230 to 231
5,C#CCOc1ccc(C(=O)C=Cc2cccnc2)c(O)c1,115 to 117
6,Cc1cccc2ncc(C(=O)N3CCCC3)c(=O)n12,132 to 134
7,CCCCCCC(=O)CCCn1c(CCC)nc2c(N)nc3ccccc3c21,111 to 113
8,COC(=O)c1sc(C)c(Br)c1OC(=S)N(C)C,152 to 154
9,Cc1ccc(C(=O)NCCCN(C)CCCNC(=O)c2ccc(C)c3nc4ccccc4nc23)c2nc3ccccc3nc12,218 to 220
10,Oc1ccc2[nH]cc(C3CCN(CCCCc4c[nH]c5ccccc45)CC3)c2c1,178 to 180
11,CCCCc1ccc(-c2csc(-c3ccc(C(=O)O)cc3)n2)cc1,263 to 265
12,CC(=O)NC(Cc1c[nH]c2ccccc12)C(=O)C=Cc1cc(C(F)(F)F)cc(C(F)(F)F)c1 (stereo unspecified),68 to 70
13,COc1cn(-c2ccc(N3CC(F)C3)cc2F)nc(-c2ccnn2-c2ccccc2)c1=O,162 to 163
14,Cc1cc(Cn2nnc(C(N)=O)c2N)ccc1C(=O)c1ccccc1,181 to 182
15,Cc1nnc2n1-c1ccc([N+](=O)[O-])cc1C(c1ccccc1F)=NC2(C)C,195
16,COC(=O)Nc1nc(-c2ccccc2)c(-c2nc3ccccc3c(=O)n2-c2ccccc2Cl)s1,> 275
17,CCC(=O)NC1CCc2c(ccc(OC)c2N)C1 (stereo unspecified),141
18,COc1ccc(S(=O)(=O)N2Cc3cc(C)ccc3N(C(=O)c3ccccc3-n3cccn3)CC2C(=O)O)cc1 (stereo unspecified),149 to 151
19,CC(NC(=O)Cc1cc(F)cc(F)c1)C(=O)NC1NC(=O)Cc2cc(F)ccc21 (stereo unspecified),195 to 200
20,COc1cc(C(O)c2cnc(Cl)nc2Cl)cc(OC)c1OC (stereo unspecified),115 to 118
21,CC1=C2CCC(=O)C23CCC(C3)C1(C)C (stereo unspecified),35 to 36
22,Cc1cnc(N2CCN(CC[C@H]3CC[C@H](NC(=O)C4CCOCC4)CC3)CC2)c2c1OCC2,224
23,CCOC(=O)Nc1ccc(C23CC4CC(CC(C4)C2)C3)cc1,132 to 134
24,Cc1cccc(C(C)(C)O)c1N,78 to 79

row,SMILES,melting point [°C]
1,CCCCC1(N(C)C)CC=C(c2[nH]c3ccccc3c2Cc2ccccc2)CC1 (stereo unspecified),107 to 115
2,CN1CC(=Cc2c(F)c(F)c(N=[N+]=[N-])c(F)c2F)C(=O)C(=Cc2c(F)c(F)c(N=[N+]=[N-])c(F)c2F)C1,153
3,CN1C(=O)C(C(=O)Nc2ccc(Oc3nc(C(F)(F)F)nn3C)cc2)C(=O)N(C)C1=O,202 to 204
4,COc1ccccc1C1=CCN(C[C@@H](CC2CCCCC2)NC(=O)C2(C)CCCCC2)CC1,93 to 95
5,CCCCOC(=O)CN(C(=O)C(F)(F)F)C(N1CCOCC1)P(=O)(O)OSc1ccc(Cl)cc1 (stereo unspecified),79.5 to 81
6,N#CCCCOc1ccc(/C=C/C(=O)O)c(Oc2ncc(C(F)(F)F)cc2Cl)c1,183 to 185
7,CCCCCCCCCCCCCCN(C(=O)CCCCCCCCCCC)C1(N)OC(CO)C(O)C(O)C1C(=O)C(N)C(=O)CNC (stereo unspecified),116
8,CN(CCCCC(=O)OC[C@@H]1CC(c2ccc(-c3ccc(N4C[C@H](Cn5ccnn5)OC4=O)cc3F)cn2)=NO1)C(=O)OC(C)(C)C,121
9,CCCCNc1nc(C)c(C(=O)c2ccc(N)c([N+](=O)[O-])c2)s1,200 to 205
10,COc1cc2c(cc1C(C)=O)sc1ccccc12,163 to 165
11,Cn1cc(C(=O)c2cccc(Cl)c2)cc1C(=O)O,214
12,CCOC(=O)C1CC2=C(CO1)C(=O)c1cc3ccccc3c(OC(C)=O)c1C2=O (stereo unspecified),196 to 198
13,CCOC(=O)c1cnc2c(O)cccc2c1,118
14,c1ccc(C(Nc2ccncc2)c2ccccc2)cc1,148 to 150
15,COCOc1ccc(C=O)cc1OC,39 to 40
16,O=C(Nc1ccc(CN2C(=O)[C@H]3CCC[C@H]3N(C(=O)CN3C(=O)c4ccccc4C3=O)c3ccccc32)cc1)OCc1ccccc1 (relative stereo),144 to 147
17,CCOc1nn(-c2ccc(C(F)(F)F)cn2)cc1CCOc1cc(CC(=O)O)n(C)n1,156 to 158
18,Clc1ccc(-c2nc3n(c2Br)CCCC3)c(Cl)c1,112 to 113
19,CCN(c1ccc(Cl)cc1C(=O)O)S(=O)(=O)c1ccc(C)cc1,163 to 165
20,Cc1ccc2nc(C(O)[C@H](C)NC(=O)OCc3ccccc3)oc2c1 (stereo partly specified),108 to 109
21,CCN1CCCC(N2C(=O)c3ccc([N+](=O)[O-])cc3C2=O)C1 (stereo unspecified),> 300
22,COc1cc(Nc2nc3cccc(-c4ccc(C(=O)N(C)C)cc4)c3o2)cc(OC)c1OC,> 280
23,NCc1ccccc1NC1CCN(Cc2ccccc2)CC1,117 to 118
